Patent US12139508B2, “Steroid derivative regulators, method for preparing the same, and uses thereof” (JIANGSU HANSOH PHARMACEUTICAL GROUP CO., LTD., priority 2018, dated 2024)
Read-outs that look alike come from different tables or passages of the source.

Experiments:
GABA-A receptor = assay: 35S-TBPS binding assay (GABAA receptor binding ability test); design: species or system Sprague-Dawley rat; conditions: rat cerebral cortex cell membrane, 5 μM GABA, 2 nM 35S-TBPS; read-out: 35S-TBPS bindng test: IC50 on inhibiting the TBPS binding activity
Summary of the method: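 Rat (male Sprague-Dawley) cortical membranes in PBS were preincubated 5 min at 25° C with compound (from 1 μM, 3-fold, 8 points, 1% DMSO), then 5 μM GABA 5 min, then 2 nM ^35S-TBPS for 20 h at 4° C. Filter-bound counts gave % inhibition against DMSO and 10 μM P026-2 controls; IC50 by 4-parameter fit.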

[1] = Pharmacokinetic assay in Balb/c mice (plasma and brain tissue); format: in vivo; conditions: mouse, po, 5 mg/kg p.o., male Balb/c mice; for AUC(0-t): read-out: Area under curve AUC0-t; for AUC(0-inf): read-out: Area under curve AUC0-∞; for half-life: read-out: Half-life t1/2 (converted); for MRT: read-out: Mean residence time MRT; for Tmax: read-out: Peak time tmax; for Cmax: read-out: Plasma concentration Cmax
Description: Balb/c mice were used as test animals. The pharmacokinetic behavior in mice (plasma and brain tissue) of the compounds of Examples 2, 3, 5, 6, 9, 13, 59, 60, 61, 63, 71-74, 81, 103, 130, 134, 135, 137, 138, 140, 141, 143, 145 and 146 orally administered at a dose of 5 mg/kg was studied.
Each group had 24 male Balb/c mice. After an overnight fast, Balb/c mice were administered p.o. with the test compound at an administration dose of 5 mg/kg and an administration volume of 10 mL/kg.
0.2 ml of blood was taken from the heart before administration and at 0, 0.5, 1, 2, 4, 6, 8 and 24 hours after administration. The samples were stored in EDTA-K2 tubes, and centrifuged for 6 minutes at 4° C., 6000 rpm to separate the plasma. The plasma samples were stored at −80° C. The mice were sacrificed with CO2, and the whole brain tissue was taken out, weighed, placed in a 2 mL centrifuge tube and stored at −80° C.
1) 160 μL of acetonitrile was added to 40 μL of the plasma sample for precipitation, and then the mixture was centrifuged for 5-20 minutes at 3500×g.
2) 90 μL of acetonitrile containing the internal standard (100 ng/mL) was added to 30 μL of the plasma and brain homogenate samples for precipitation, and then the mixture was centrifuged for 8 minutes at 13000 rpm.
3) 70 μL of the treated supernatant was taken and added to 70 μL of water, and mixed by vortex for 10 minutes. 20 μL of the mixture was taken to analyze the concentration of the test compound by LC/MS/MS. LC/MS/MS analysis instrument: AB Sciex API 4000 Qtrap.
• Liquid chromatography condition: Shimadzu LC-20AD pump. • Chromatographic column: Agilent ZORBAX™ XDB-C18 (50×2.1 mm, 3.5 μm) (note: Aglient ZORBAX™ is a kind of column used in the reverse HPLC); • Mobile phase: Eluent A was 0.10% formic acid in water, and Eluent B was acetonitrile. • Flow rate: 0.4 mL/min • Elution time: 0-4.0 minutes, the eluent is as follows:
The main parameters of pharmacokinetics were calculated by WinNonlin 6.1.

C[C@@]1(O)CC[C@H]2[C@H](CC[C@@H]3[C@@H]2CC[C@@]2(C)[C@H]3[C@@H]3C[C@@H]3[C@@H]2C(=O)Cn2ccc(C(F)(F)F)n2)C1 [Example 6, 1-((2R,4aS,4bR,6aS,7S,7aS,8aR,8bR,8cR,10aR)-2-Hydroxy-2,6a-dimethyloctadecahydrocyclopropa[4,5]cyclopenta[1,2-a]phenanthren-7-yl)-2-(3-(trifluoromethyl)-1H-pyrazol-1-yl)ethan-1-one]
IC50 (GABA-A receptor): 3.1 nM | AUC(0-t) ([1]; brain tissue): 0.917 µg·h/mL | AUC(0-inf) ([1]; brain tissue): 0.964 µg·h/mL | half-life ([1]; brain tissue): 1.9 h | MRT ([1]; brain tissue): 2.4 h | Tmax ([1]; brain tissue): 0.5 h | Cmax ([1]; brain tissue): 0.464 µg/mL | AUC(0-t) ([1]; plasma): 0.409 µg·h/mL | AUC(0-inf) ([1]; plasma): 0.484 µg·h/mL | half-life ([1]; plasma): 3.19 h | MRT ([1]; plasma): 4.03 h | Tmax ([1]; plasma): 0.5 h | Cmax ([1]; plasma): 0.219 µg/mL

C[C@@]1(O)CC[C@H]2[C@H](CC[C@@H]3[C@@H]2CC[C@@]2(C)[C@H]3[C@@H]3C[C@@H]3[C@@H]2C(=O)Cn2ncnn2)C1 [Example 9, 1-((2R,4aS,4bR,6aS,7S,7aS,8aR,8bR,8cR,10aR)-2-Hydroxy-2,6a-dimethyloctadecahydrocyclopropa[4,5]cyclopenta[1,2-a]phenanthren-7-yl)-2-(2H-tetrazol-2-yl)ethan-1-one]
IC50 (GABA-A receptor): 21.3 nM | AUC(0-t) ([1]; brain tissue): 0.677 µg·h/mL | AUC(0-inf) ([1]; brain tissue): 0.68 µg·h/mL | half-life ([1]; brain tissue): 0.5 h | MRT ([1]; brain tissue): 0.9 h | Tmax ([1]; brain tissue): 0.5 h | Cmax ([1]; brain tissue): 0.605 µg/mL | AUC(0-t) ([1]; plasma): 0.775 µg·h/mL | AUC(0-inf) ([1]; plasma): 0.778 µg·h/mL | half-life ([1]; plasma): 0.9 h | MRT ([1]; plasma): 1.1 h | Tmax ([1]; plasma): 0.5 h | Cmax ([1]; plasma): 0.664 µg/mL

C[C@@H]1C[C@H](C(=O)Cn2cc(C(F)(F)F)cn2)[C@@]2(C)CC[C@H]3[C@@H](CC[C@@H]4C[C@](C)(O)CC[C@@H]43)[C@H]12 [Example 59, 1-((3R,5R,8R,9R,10S,13S,14S,15R,17S)-3-Hydroxy-3,13,15-trimethylhexadecahydro-1H-cyclopenta[a]phenanthren-17-yl)-2-(4-(trifluoromethyl)-1H-pyrazol-1-yl)ethan-1-one]
IC50 (GABA-A receptor): 6.2 nM | AUC(0-t) ([1]; brain tissue): 2.64 µg·h/mL | AUC(0-inf) ([1]; brain tissue): 2.68 µg·h/mL | half-life ([1]; brain tissue): 3.18 h | MRT ([1]; brain tissue): 4.81 h | Tmax ([1]; brain tissue): 1 h | Cmax ([1]; brain tissue): 0.678 µg/mL | AUC(0-t) ([1]; plasma): 1.3 µg·h/mL | AUC(0-inf) ([1]; plasma): 1.32 µg·h/mL | half-life ([1]; plasma): 2.99 h | MRT ([1]; plasma): 4.15 h | Tmax ([1]; plasma): 0.5 h | Cmax ([1]; plasma): 0.554 µg/mL

C[C@@H]1C[C@H](C(=O)Cn2ncnn2)[C@@]2(C)CC[C@H]3[C@@H](CC[C@@H]4C[C@](C)(O)CC[C@@H]43)[C@H]12 [Example 63, 1-((3R,5R,8R,9R,10S,13S,14S,15R,17S)-3-Hydroxy-3,13,15-trimethylhexadecahydro-1H-cyclopenta[a]phenanthren-17-yl)-2-(2H-tetrazol-2-yl)ethan-1-one]
IC50 (GABA-A receptor): 6.1 nM | AUC(0-t) ([1]; brain tissue): 0.603 µg·h/mL | AUC(0-inf) ([1]; brain tissue): 0.618 µg·h/mL | half-life ([1]; brain tissue): 0.72 h | MRT ([1]; brain tissue): 1.21 h | Tmax ([1]; brain tissue): 0.5 h | Cmax ([1]; brain tissue): 0.486 µg/mL | AUC(0-t) ([1]; plasma): 0.599 µg·h/mL | AUC(0-inf) ([1]; plasma): 0.604 µg·h/mL | half-life ([1]; plasma): 2.58 h | MRT ([1]; plasma): 2.42 h | Tmax ([1]; plasma): 0.5 h | Cmax ([1]; plasma): 0.335 µg/mL

C[C@@]1(O)CC[C@H]2[C@H](CC[C@@H]3[C@@H]2CC[C@@]2(C)[C@H]3[C@@H]3C[C@@H]3[C@@H]2C(=O)COc2cnc(C(F)(F)F)nc2)C1 [Example 130, 1-((2R,4aS,4bR,6aS,7S,7aS,8aR,8bR,8cR,10aR)-2-Hydroxy-2,6a-dimethyloctadecahydrocyclopropa[4,5]cyclopenta[1,2-a]phenanthren-7-yl)-2-((2-(trifluoromethyl)pyrimidin-5-yl)oxy)ethan-1-one]
IC50 (GABA-A receptor): 4.2 nM | AUC(0-t) ([1]; brain tissue): 2.31 µg·h/mL | AUC(0-inf) ([1]; brain tissue): 2.63 µg·h/mL | half-life ([1]; brain tissue): 2.49 h | MRT ([1]; brain tissue): 3.88 h | Tmax ([1]; brain tissue): 0.5 h | Cmax ([1]; brain tissue): 0.563 µg/mL | AUC(0-t) ([1]; plasma): 1.39 µg·h/mL | AUC(0-inf) ([1]; plasma): 1.56 µg·h/mL | half-life ([1]; plasma): 2.21 h | MRT ([1]; plasma): 3.83 h | Tmax ([1]; plasma): 0.5 h | Cmax ([1]; plasma): 0.307 µg/mL

C[C@@H]1C[C@H](C(=O)Cn2cc(C#N)c(Cl)n2)[C@@]2(C)CC[C@H]3[C@@H](CC[C@@H]4C[C@](C)(O)CC[C@@H]43)[C@H]12 [Example 134, 3-Chloro-1-(2-((3R,5R,8R,9R,10S,13S,14S,15R,17S)-3-hydroxy-3,13,15-trimethylhexadecahydro-1H-cyclopenta[a]phenanthren-17-yl)-2-oxoethyl)-1H-pyrazole-4-carbonitrile]
IC50 (GABA-A receptor): 6.7 nM | AUC(0-t) ([1]; brain tissue): 3.21 µg·h/mL | AUC(0-inf) ([1]; brain tissue): 3.5 µg·h/mL | half-life ([1]; brain tissue): 1.59 h | MRT ([1]; brain tissue): 3.22 h | Tmax ([1]; brain tissue): 1 h | Cmax ([1]; brain tissue): 0.892 µg/mL | AUC(0-t) ([1]; plasma): 4.63 µg·h/mL | AUC(0-inf) ([1]; plasma): 5.13 µg·h/mL | half-life ([1]; plasma): 1.78 h | MRT ([1]; plasma): 3.31 h | Tmax ([1]; plasma): 0.5 h | Cmax ([1]; plasma): 1.75 µg/mL

C[C@@H]1C[C@H](C(=O)Cn2nc(C#N)cc2C#N)[C@@]2(C)CC[C@H]3[C@@H](CC[C@@H]4C[C@](C)(O)CC[C@@H]43)[C@H]12 [Example 135, 1-(2-((3R,5R,8R,9R,10S,13S,14S,15R,17S)-3-Hydroxy-3,13,15-trimethylhexadecahydro-1H-cyclopenta[a]phenanthren-17-yl)-2-oxoethyl)-1H-pyrazole-3,5-dicarbonitrile]
IC50 (GABA-A receptor): 4.3 nM | AUC(0-t) ([1]; brain tissue): 3.74 µg·h/mL | AUC(0-inf) ([1]; brain tissue): 4.45 µg·h/mL | half-life ([1]; brain tissue): 2.82 h | MRT ([1]; brain tissue): 4.71 h | Tmax ([1]; brain tissue): 2 h | Cmax ([1]; brain tissue): 0.724 µg/mL | AUC(0-t) ([1]; plasma): 4.1 µg·h/mL | AUC(0-inf) ([1]; plasma): 4.11 µg·h/mL | half-life ([1]; plasma): 2.06 h | MRT ([1]; plasma): 4.38 h | Tmax ([1]; plasma): 2 h | Cmax ([1]; plasma): 0.64 µg/mL

CC[C@@H]1C[C@H](C(=O)Cn2ncnn2)[C@@]2(C)CC[C@H]3[C@@H](CC[C@@H]4C[C@](C)(O)CC[C@@H]43)[C@H]12 [Example 149, 1-((3R,5R,8R,9R,10S,13S,14S,15R,17S)-15-Ethyl-3-hydroxy-3,13-dimethylhexadecahydro-1H-cyclopenta[a]phenanthren-17-yl)-2-(2H-tetrazol-2-yl)ethan-1-one]
IC50 (GABA-A receptor): 25.6 nM

C[C@@H]1C[C@H](C(=O)COc2cnc(C(F)(F)F)nc2)[C@@]2(C)CC[C@H]3[C@@H](CC[C@@H]4C[C@](C)(O)CC[C@@H]43)[C@H]12 [Example 150, 1-((3R,5R,8R,9R,10S,13S,14S,15R,17S)-3-Hydroxy-3,13,15-trimethylhexadecahydro-1H-cyclopenta[a]phenanthren-17-yl)-2-((2-(trifluoromethyl)pyrimidin-5-yl)oxy)ethan-1-one]
IC50 (GABA-A receptor): 8.8 nM

C[C@@]1(O)CC[C@H]2[C@H](CC[C@@H]3[C@@H]2CC[C@@]2(C)[C@H]3[C@H](C3CC3)C[C@@H]2C(=O)COc2cnc(C(F)(F)F)nc2)C1 [Example 151, 1-((3R,5R,8R,9R,10S,13S,14S,15S,17S)-15-Cyclopropyl-3-hydroxy-3,13-dimethylhexadecahydro-1H-cyclopenta[a]phenanthren-17-yl)-2-((2-(trifluoromethyl)pyrimidin-5-yl)oxy)ethan-1-one]
IC50 (GABA-A receptor): 26.2 nM

C[C@@]1(O)CC[C@H]2[C@H](CC[C@@H]3[C@@H]2CC[C@]2(C)[C@@H](C(=O)COCC4(C#N)CC4)CC[C@@H]32)C1 [Example 166, 1-((2-((3R,5R,8R,9R,10S,13S,14S,17S)-3-Hydroxy-3,13-dimethylhexadecahydro-1H-cyclopenta[a]phenanthren-17-yl)-2-oxoethoxy)methyl)cyclopropane-1-carbonitrile]
IC50 (GABA-A receptor): 38.4 nM
